Test [1] has as its system Drosophila suzukii larvae. As to the kind of experiment: Drosophila suzukii larval feeding (Example 8; peptide screening). The test is classed as in vivo. The settings on record: for Feeding D. suzukii, % lethality in population after adjustment for baseline: 10^−5 M, 48 hr exposure. The procedure:
(§1) First to Fourth generations of peptides were produced with varying structures and tested for CAPA receptor agonist activity, and screened for lethality in vivo against D. suzukii and M. persicae as per methods in example 2 and example 8. The top performing peptides were selected and gave rise to the list of CAPA1 and CAPA2 peptides provided above in Table 1 which were then further tested in the following applied examples.
Peptides were tested at concentrations ranging from [10^−4 M] to [10^−7 M] in a final volume of 200 μl of 0.8% agarose containing 0.09% m-Cresol purple pH marker dye (Sigma) and 5% sucrose (Sigma).
Agarose was melted in dH2O, before addition of sucrose and dye. The agarose/dye solution was then allowed to cool to 60° C. 96 well plates (flat-bottomed 3596 TC-plates; Corning) containing 20 μl volumes of neuropeptide per well were prepared, and 180 μl agarose/dye solution dispensed into each well via a Distriman repetitive micro-pipettor (Gilson). Controls contained 20 μl dH2O as a ‘sham’ treatment with 180 μl of the 0.8% agarose/dye solution. Plates were agitated at 800 rpm, to ensure mixing, at 60° C. (Eppendorf Thermomixer C). Plates were then allowed to cool, and agarose/dye solution solidify, prior to use.
Each peptide was assayed with a minimum of 7 to maximum 9 late L2/early L3 Spotted wing Drosophila, Drosophila suzukii, (feeding) larvae per well, minimum n=8 wells per peptide concentration and a minimum n=12 control wells per plate. The selected larvae were first washed 2× in ice cold Drosophila Schneider's liquid medium (ThermoFisher) before insertion into wells to remove extraneous food. After complete insertion of all larvae the plates were covered with breathable sealing membrane for multi-well plates (Sigma).
Larvae were assayed for lethality after 48 hr exposure at 21° C. and findings recorded. During examination the assay plate was kept on ice, to reduce larval locomotor activity (wandering), and larvae in each well were examined using a binocular stereomicroscope (Zeiss).
The water control group was used to determine baseline lethality. Results for neuropeptide analogues were calculated as % lethality in the remaining population after adjustment for the baseline. Results are shown in Tables 7 and 8 below, and in FIG. 1.

Test [2] has as its system M. persicae. As to the kind of experiment: Feeding of aphids with peptides in artificial diet (Example 1). The test is classed as in vivo, Myzus persicae. How it is done:
A standard artificial diet for M. persicae was produced as described in Van Emden (2009) and provided the basal diet to which peptides were added for screening purposes. Peptides were diluted individually in the artificial diet to a pre-determined concentration.
Feeding apparatus were constructed using a set-up developed by Sadeghi et al (2009). For this, a piece of Parafilm was stretched over a Plexiglas ring (h=4 cm, Ø=3 cm) and 100 μl of the artificial diet containing the desired neuropeptide analogue was pipette onto the Parafilm membrane. A second piece of Parafilm, stretched to 4 times the original thickness, was stretched over the original layer, sandwiching the artificial diet between two layers of Parafilm. A strip of Parafilm was wrapped around the circumference of the Plexiglas ring, sealing in the diet. A plastic ring (h=1.2 cm, Ø=3.4 cm) was subsequently placed over the Parafilm layer, creating a walled chamber in which to house test aphids in contact with the Parafilm layer containing the artificial diet. Finally, a small Petri dish (h=1 cm, Ø=3.6 cm), modified for ventilation with net cloth, was placed on top of each feeding apparatus to prevent aphid escape.
To obtain aphids for use in experiments, reproducing anholocyclic adults were placed on individual excised leaves of Chinese cabbage at densities of 5 adults per leaf and allowed to reproduce for 24 h. The stem of each excised leaf was held within a 0.5 mL Eppendorf tube containing water via a punctured hole in the Eppendorf lid, and placed individually within a microcage (L=4 cm, Ø=9.5 cm). Following 24h, adults were removed and resultant first instar nymphs (<1 day old and synchronised in age to within 24h) retained. Nymphs were allowed to develop on the Chinese cabbage for 5 days. On day 5, (3rd instar) nymphs were transferred onto the artificial diet containing a neuropeptide analogue at densities of 1 per feeding chamber and monitored daily until death. Aphids were transferred to fresh artificial diet (containing neuropeptide analogue or water control) every 5 days.
The water control group was used to determine baseline lethality. Results for neuropeptide analogues were calculated as % lethality in the remaining population after adjustment for the baseline.

Test [3] has as its system D. suzukii larvae. In words: Drosophila suzukii larval feeding (Example 9; dose response). Format: in vivo. The settings on record: for % Lethality ± SEM: Table 6, 10^−5 M, 48 hr and/or 72 h exposure (FIG. 7: AH270/PEGAH270 120 h). How it is done:
Dose response experiments were carried out for AH382, AH383, AH188, data shown for AH382 (a), AH383 (b), AH188 (c, 48 hours). Data are mean % lethality ±SEM for concentrations between 10^−4 M and 10^−7 M (a) AH382, (b) AH383 72 hours treatment; and between 10^−5 M and 10^−9 M (AH188, 3c), 48 hours treatment. The LD50 for AH382, AH383 and AH188 is 10^−6 M.
Further larval feeding assays with D. suzukii larvae were conducted as explained above in example 7. A total of 88 peptides were tested against D. suzukii larvae in 96 well plates at 10^−5 M in a final volume of 200 μl of 0.8% agarose containing 0.09% m-Cresol purple pH marker dye (Sigma) and 5% sucrose (Sigma). Controls contained dH2O (18% lethality) or native Capa-2 peptide (38% lethality) as a ‘sham’ treatment. Each peptide was assayed with a minimum of 7 to maximum 9 late L2/early L3 larvae per well, minimum n=8 wells per peptide concentration (minimum 56 larvae) and a minimum n=12 control wells (minimum 84 larvae) per plate. Larvae were assayed for lethality after 48 hr and/or 72 h exposure at 21° C. using a binocular stereomicroscope and findings recorded. Candidate peptides were also tested between 10^-4 and 10^-7 M (dose response curve).
Candidate peptides for D. suzukii with 70%-90% lethality are indicated below, in Table 6.

Test [4] has as its system Myzus persicae aphids. As to the kind of experiment: Topical application by spraying, Potter Spray Tower (Example 3). The test is classed as in vivo. As to conditions: 48 hours post spray. The procedure:
Aphids were exposed to test peptides in the absence of additional external stress conditions.
Brassica rapa (Chinese cabbage; Wong Bok) were infested with 30 adult Myzus persicae aphids per plant. Aphids were left at least 2 hours to settle and begin feeding from the host plant.
Potter Spray Tower (Burkard Manufacturing) was ‘primed’ by spraying 1000 μl of liquid coating the inside of the tower. Vehicle spray only (Croda ATPlus UEP 100 LQ-(CQ) 0.1% v/v) was used as a control.
Spray volumes for all solutions were 3000 μl. […] After spraying was completed the plant was allowed to rest on the spray platform for 30 seconds to allow settling of the sprayed chemical.
Post peptide application, each condition was placed into its own individual Bugdorm (Watkins and Doncaster, 44545), to prevent repulsed or displaced aphids moving from one condition to another. Numbers of alive and dead aphids on the plant were counted 48 hours post spray, and the presence of any fresh nymphs noted. Plants were watered prior to spraying but not afterwards to eliminate the possibility of drowning any aphids present or washing off the sprayed liquid.
The vehicle control group was used to determine baseline lethality. Results for neuropeptide analogues were calculated as % lethality in the remaining population after adjustment for the baseline.

The subject of test [5] is M. persicae. As to the kind of experiment: Feeding of aphids with peptides in artificial diet (Example 2; peptide screening, honeydew). Format: in vivo, Myzus persicae.
Source text: as §1
The aphid feeding protocol was devised according to Sadeghi et al (2009) as explained in example 1. Feeding discs were designed and manufactured as above. A standard sucrose-based artificial diet for M. persicae (30 aphids per chamber, 3 chambers per experiment unless otherwise stated) was produced as described in example 1 (Sadeghi et al, J. Insect Science, 2009) and provided the basal diet to which peptides were added for screening purposes. Peptides were diluted individually in the artificial diet to 10^−5 M. Lethality was scored after up to 120 hours (IRAC guidelines for aphid testing).
Membrane discs were also included to collect ‘honeydew’ secreted by feeding aphids and stained with ninhydrin to observe feeding patterns.
Comparison of purple stain in controls to treated aphids, show there is very little colour on many membranes where peptides were added.
Capa peptides cause mortality in M. persicae via feeding: At 120 hours, AH383 and AH387 peptides induce ˜60% mean (and median) lethality. Although mean lethality is lower with AH270/PEGAH270 (40%), 100% lethality is observed in one sample of 30 insects (AH270); and 90% in at least one sample of each of AH383, AH387 and PEGAH270 (FIG. 3). Note that PEGAH270 is a pegylated form of peptide AH270.

Test [6] concerns the target T1, Drosophila melanogaster capa GPCR, capaR (Drosophila melanogaster, UniProt Q8ITC7 1-477).
T1 sequence (looked up): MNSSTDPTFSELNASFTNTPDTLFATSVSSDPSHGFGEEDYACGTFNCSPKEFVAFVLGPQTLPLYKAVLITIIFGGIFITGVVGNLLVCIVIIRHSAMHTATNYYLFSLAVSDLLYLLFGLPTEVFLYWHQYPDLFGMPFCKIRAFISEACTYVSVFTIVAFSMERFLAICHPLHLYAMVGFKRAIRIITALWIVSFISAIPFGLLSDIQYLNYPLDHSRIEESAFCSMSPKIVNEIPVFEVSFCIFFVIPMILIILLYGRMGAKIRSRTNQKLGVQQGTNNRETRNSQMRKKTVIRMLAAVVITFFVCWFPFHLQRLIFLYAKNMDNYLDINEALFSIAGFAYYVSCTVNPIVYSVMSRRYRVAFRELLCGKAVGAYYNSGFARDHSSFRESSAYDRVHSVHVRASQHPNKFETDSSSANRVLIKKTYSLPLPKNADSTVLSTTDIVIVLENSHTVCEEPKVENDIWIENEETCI
In words: cell-based or functional assay.

The record followed here is patent publication US20240373849A1, “INSECT NEUROPEPTIDE ANALOGUES” (THE UNIVERSITY COURT OF THE UNIVERSITY OF GLASGOW, priority 2020, published 2024).

Square brackets hold non-standard residues; d marks the D form. NMeL = CN[C@@H](CC(C)C)C(=O)O; NMeV = CN[C@H](C(=O)O)C(C)C; NMeA = CN[C@@H](C)C(=O)O; Aib = CC(C)(N)C(=O)O

In the case of H-LYAFARV-NH2 [AH188], in test [1], the “Feeding D. suzukii, % lethality in population after adjustment for baseline” value is recorded as 71%. In addition, in test [1] (Peptide screening, Table 5, blank control 20.33), the “D. suzukii (Mean% Lethality ± SD)” value is reported as 70.50%. Moreover, the “D. suzukii (Sig Diff Grp)” value in test [1] (Peptide screening, Table 5, difference in survival) was “ABC”. In addition, the “Feeding Aphid, % lethality in population after adjustment for baseline” value in test [2] (10^−4 M) is 23%; in test [2] (10^−5 M) it was 23%; in test [2] (10^−5 M, @72 h), 1 (33%@72 h); in test [2] (10^−6 M), 22%; in test [2] (10^−7 M), 17%. In addition, the LD50 in test [3] (48 hours treatment) is 10^−6 M. For the same molecule, the “% Lethality ± SEM” value in test [3] was determined as 71 ± 6%. In addition, the “Spray Aphid, % lethality in population after adjustment for baseline” value in test [4] (10^−4 M) worked out at 2%. For the same molecule, the “M. persicae (% Lethality)” value in test [5] (Peptide screening, Table 5) was 22%.

For “H-(Me)L-YAFARV-NH2 (H-[NMeL]YAFARV-NH2; SMILES CN[C@@H](CC(C)C)C(=O)N[C@@H](Cc1ccc(O)cc1)C(=O)N[C@@H](C)C(=O)N[C@@H](Cc1ccccc1)C(=O)N[C@@H](C)C(=O)N[C@@H](CCCNC(=N)N)C(=O)N[C@H](C(N)=O)C(C)C) [AH383]”, the “Feeding D. suzukii, % lethality in population after adjustment for baseline” value in test [1] was found to be 56%. For the same molecule, in test [2] (10^−5 M), the “Feeding Aphid, % lethality in population after adjustment for baseline” value turned out to be 10%. The LD50 in test [3] (72 hours treatment) was 10^−6 M. Moreover, the “% Lethality ± SEM” value in test [3] was found to be 80 ± 3%. The “Spray Aphid, % lethality in population after adjustment for baseline” value in test [4] (10^−4 M) is listed as 42%; in test [4] (10^−5 M), 13%. The same molecule returned a mean lethality in test [5] (M. persicae feeding, 10^−5 M, 120 hours) of around 60%. For the same molecule, the “lethality observed in one sample of 30 insects” value in test [5] (M. persicae feeding, 10^−5 M, 120 hours, single sample) was 90%.

B1: AH387 (H-LY-Aib-FARV-NH2) (peptide)
peptide: H-LY[Aib]FARV-NH2
SMILES: CC(C)C[C@H](N)C(=O)N[C@@H](Cc1ccc(O)cc1)C(=O)NC(C)(C)C(=O)N[C@@H](Cc1ccccc1)C(=O)N[C@@H](C)C(=O)N[C@@H](CCCNC(=N)N)C(=O)N[C@H](C(N)=O)C(C)C
In the case of B1, the “CapaR Ca^2+ Agonist response at 10^-7 M” value in test [6] was 17 % of native Capa1 activity.

B2: AH380 (H-LYAFAR-(Me)V-NH2) (peptide)
peptide: H-LYAFAR[NMeV]-NH2
SMILES: CC(C)C[C@H](N)C(=O)N[C@@H](Cc1ccc(O)cc1)C(=O)N[C@@H](C)C(=O)N[C@@H](Cc1ccccc1)C(=O)N[C@@H](C)C(=O)N[C@@H](CCCNC(=N)N)C(=O)N(C)[C@H](C(N)=O)C(C)C
Regarding B2, the “CapaR Ca^2+ Agonist response at 10^-7 M” value in test [6] is 14 % of native Capa1 activity.

B3: AH382 (H-LY-(Me)A-FARV-NH2) (peptide)
peptide: H-LY[NMeA]FARV-NH2
SMILES: CC(C)C[C@H](N)C(=O)N[C@@H](Cc1ccc(O)cc1)C(=O)N(C)[C@@H](C)C(=O)N[C@@H](Cc1ccccc1)C(=O)N[C@@H](C)C(=O)N[C@@H](CCCNC(=N)N)C(=O)N[C@H](C(N)=O)C(C)C
Turning to B3, the “CapaR Ca^2+ Agonist response at 10^-7 M” value in test [6] was 36 % of native Capa1 activity.

B4: AH383 (H-(Me)L-YAFARV-NH2) (peptide)
peptide: H-[NMeL]YAFARV-NH2
SMILES: CN[C@@H](CC(C)C)C(=O)N[C@@H](Cc1ccc(O)cc1)C(=O)N[C@@H](C)C(=O)N[C@@H](Cc1ccccc1)C(=O)N[C@@H](C)C(=O)N[C@@H](CCCNC(=N)N)C(=O)N[C@H](C(N)=O)C(C)C
As to B4, the “CapaR Ca^2+ Agonist response at 10^-7 M” value in test [6] is 26 % of native Capa1 activity.

B5: AH188 (H-LYAFARV-NH2) (peptide)
peptide: H-LYAFARV-NH2
Take B5: in test [6], the “CapaR Ca^2+ Agonist response at 10^-7 M” value was 64 % of native Capa1 activity.
